Measured values published in patent EP4810038A1, “METHOD FOR TREATING ALK-POSITIVE OR ROS1-POSITIVE NON-SMALL CELL LUNG CANCER” (Shenzhen TargetRx Co., Ltd., priority 2023, dated 2025).
Where “and” joins values, the source holds several entries; their conditions need not be identical. Equal values may be shown once.

Assays:
[1] = system: Ba/F3 (SLC34A2-ROS1 G2032R) cell line; assay: Anti-tumor effect in subcutaneous transplanted Ba/F3 (SLC34A2-ROS1 G2032R) model; format: in vivo, NOD-SCID mice; conditions: for average tumor volume: 21st day after administration
Description: Housing environment: SPF grade.
Environmental conditions of the housing room of the laboratory animals: All the laboratory animals were housed in individually ventilated cages with constant temperature and constant humidity. […] The animals were continuously provided with cobalt-60 irradiated complete pelleted mouse feed with unlimited free access. The animals drank tap water (used after being autoclaved), which was provided continuously from water bottles, allowing for free access. The cages for raising the mice were polysulfone mice cages, which were autoclaved before use, and measured 325 mm × 210 mm × 180 mm. The bedding was autoclaved corn cobs. Each cage contained 5 animals. The cage cards were marked with the IACUC approval number, experiment number, start time of the experiment, project leader, experimenters, source of the animals, group, and animal number. The laboratory animals were marked with ear tags or ear labels.
The Ba/F3 (SLC34A2-ROS1 G2032R) cells in the exponential growth phase were collected, resuspended in PBS to a suitable concentration, and then subcutaneously inoculated into nude mice for tumor formation.
Assay method: Female NOD/SCID mice were subcutaneously inoculated with 2×10^6 Ba/F3 (SLC34A2-ROS1 G2032R) cells on the right side to establish a subcutaneous tumor transplantation model. […] The mice were administered orally via gavage once daily. The efficacy was evaluated based on the relative tumor growth inhibition rate (TGI), and the safety was evaluated based on the changes in the body weight and mortality of the animals.
All the procedures, including drug administration, tumor measurement, weight measurement, etc., were performed in a biosafety cabinet or on a clean bench.
The relative tumor growth rate (T/C%) was the percentage value of the relative tumor volume between a treatment group and the control group at a certain time point, or the percentage value of the tumor weight between a treatment group and the control group. The calculation formula was: T/C% = TRTV / CRTV × 100% (TRTV: the average RTV of the treatment group; CRTV: the average RTV of the solvent control group; RTV = Vt / V0, wherein V0 is the tumor volume of the animal at the time of grouping, and Vt is the tumor volume of the animal after treatment); or T/C% = TTW / CTW × 100% (TTW: the average tumor weight at the end of the assay in the treatment group; CTW: the average tumor weight at the end of the assay in the solvent control group).
Statistical analysis: To compare the tumor volume on a given day across the different treatment groups, we first used the Bartlett's test to verify the assumption of homogeneity of variance among all the groups. When the p-value of the Bartlett's test was not less than 0.05, one-way ANOVA was used to test whether the means of all the groups were equal. If the p-value of the one-way ANOVA was less than 0.05, we would use the Tukey's HSD test for the pairwise comparisons between all the groups, or use the Dunnett's test for a pairwise comparison between each treatment group and the control group. When the p-value of the Bartlett's test was less than 0.05, the Kruskal-Wallis test was used to test whether the medians of all the groups were equal. […]

ALK fusion = assay: Phase I clinical trial: biomarker analysis of 26 subjects previously treated with at least one ALK inhibitor
[2] = bypass signaling alteration BRCA1
[3] = bypass signaling alteration BRCA2
[4] = bypass signaling alteration CCNE1
[5] = bypass signaling alteration CDKN2A
[6] = bypass signaling alteration EGFR
[7] = bypass signaling alteration IGF1R
[8] = bypass signaling alteration KIT
[9] = bypass signaling alteration MET
[10] = bypass signaling alteration RB1
[11] = bypass signaling alteration TP53

`[2H]C([2H])([2H])n1nc2c(c1C#N)-c1cnc(N)c(c1)O[C@H](C)c1cc(F)ccc1C(=O)N(C)C2` [compound A, (10R)-7-amino-12-fluoro-2-(methyl-d3)-10,16-dimethyl-15-oxo-10,15,16,17-tetrahydro-2H-8,4-(metheno)pyrazolo[4,3-h][2,5,11]benzoxadiazacyclotetradecine-3-carbonitrile] was tested, and the average tumor volume ([1]; 1.5 mg/kg p.o. once daily) was 1334.38 mm^3, the average tumor volume ([1]; 5 mg/kg p.o. once daily) was 305.46 mm^3 and the average tumor volume ([1]; 15 mg/kg p.o. once daily) was 0 mm^3. For the same compound, the “tumor-bearing mice with tumor volume reduced to 0” value ([1]; 15 mg/kg, end of the assay) was 10/10, the “PFS, mutant TP53 versus wild-type TP53” value (ALK fusion; ALK TKI resistance subgroup, P=0.235) was “no difference” and the “Disease control rate (CR + PR + SD)” value (ALK fusion; ALK fusion (all 26 subjects)) was 20/26. The “Overall response rate (CR + PR)” value (ALK fusion; ALK fusion (all 26 subjects)) was 11/26, the Partial response (ALK fusion; ALK fusion (all 26 subjects)) was 11 and 11/26 and the Progressive disease (ALK fusion; ALK fusion (all 26 subjects)) was 6/26. The Stable disease (ALK fusion; ALK fusion (all 26 subjects)) was 9/26, the “Disease control rate (CR + PR + SD)” value (ALK fusion; ALK fusion V1) was 4/6 and the “Overall response rate (CR + PR)” value (ALK fusion; ALK fusion V1) was 2/6. For the same compound, the Partial response (ALK fusion; ALK fusion V1) was 2/6, the Progressive disease (ALK fusion; ALK fusion V1) was 2/6 and the Stable disease (ALK fusion; ALK fusion V1) was 2/6. For the same compound, the “Disease control rate (CR + PR + SD)” value (ALK fusion; ALK fusion V2) was 3/3, the “Overall response rate (CR + PR)” value (ALK fusion; ALK fusion V2) was 1/3 and the Partial response (ALK fusion; ALK fusion V2) was 1/3. The Progressive disease (ALK fusion; ALK fusion V2) was 0/3, the Stable disease (ALK fusion; ALK fusion V2) was 2/3 and the “Disease control rate (CR + PR + SD)” value (ALK fusion; ALK fusion V3) was 7/8. For the same compound, the “Overall response rate (CR + PR)” value (ALK fusion; ALK fusion V3) was 5/8, the Partial response (ALK fusion; ALK fusion V3) was 5/8 and the Progressive disease (ALK fusion; ALK fusion V3) was 1/8. For the same compound, the Stable disease (ALK fusion; ALK fusion V3) was 2/8, the “Disease control rate (CR + PR + SD)” value (ALK fusion; ALK fusion V5) was 1/1 and the “Overall response rate (CR + PR)” value (ALK fusion; ALK fusion V5) was 1/1. The Partial response (ALK fusion; ALK fusion V5) was 1/1, the Progressive disease (ALK fusion; ALK fusion V5) was 0/1 and the Stable disease (ALK fusion; ALK fusion V5) was 0/1. For the same compound, the “Disease control rate (CR + PR + SD)” value (ALK fusion; ALK fusion others) was 5/8, the “Overall response rate (CR + PR)” value (ALK fusion; ALK fusion others) was 2/8 and the Partial response (ALK fusion; ALK fusion others) was 2/8. The Progressive disease (ALK fusion; ALK fusion others) was 3/8, the Stable disease (ALK fusion; ALK fusion others) was 3/8 and the “Disease control rate (CR + PR + SD)” value (ALK fusion; ALK mutation (any)) was 10/12. For the same compound, the “Overall response rate (CR + PR)” value (ALK fusion; ALK mutation (any)) was 5/12, the Partial response (ALK fusion; ALK mutation (any)) was 5/12 and the Progressive disease (ALK fusion; ALK mutation (any)) was 2/12. The Stable disease (ALK fusion; ALK mutation (any)) was 5/12, the “Disease control rate (CR + PR + SD)” value (ALK fusion; ALK mutation p.E1210K p.D1203N) was 0/1 and the “Overall response rate (CR + PR)” value (ALK fusion; ALK mutation p.E1210K p.D1203N) was 0/1. The Partial response (ALK fusion; ALK mutation p.E1210K p.D1203N) was 0/1, the Progressive disease (ALK fusion; ALK mutation p.E1210K p.D1203N) was 1/1 and the Stable disease (ALK fusion; ALK mutation p.E1210K p.D1203N) was 0/1. The “Disease control rate (CR + PR + SD)” value (ALK fusion; ALK mutation p.G1202R) was 5/6, the “Overall response rate (CR + PR)” value (ALK fusion; ALK mutation p.G1202R) was 3/6 and the Partial response (ALK fusion; ALK mutation p.G1202R) was 3/6. For the same compound, the Progressive disease (ALK fusion; ALK mutation p.G1202R) was 1/6, the Stable disease (ALK fusion; ALK mutation p.G1202R) was 2/6 and the “Disease control rate (CR + PR + SD)” value (ALK fusion; ALK mutation p.I1171N) was 1/1. The “Overall response rate (CR + PR)” value (ALK fusion; ALK mutation p.I1171N) was 0/1, the Partial response (ALK fusion; ALK mutation p.I1171N) was 0/1 and the Progressive disease (ALK fusion; ALK mutation p.I1171N) was 0/1. The Stable disease (ALK fusion; ALK mutation p.I1171N) was 1/1, the “Disease control rate (CR + PR + SD)” value (ALK fusion; ALK mutation p.I1171T) was 1/1 and the “Overall response rate (CR + PR)” value (ALK fusion; ALK mutation p.I1171T) was 0/1. For the same compound, the Partial response (ALK fusion; ALK mutation p.I1171T) was 0/1, the Progressive disease (ALK fusion; ALK mutation p.I1171T) was 0/1 and the Stable disease (ALK fusion; ALK mutation p.I1171T) was 1/1. For the same compound, the “Disease control rate (CR + PR + SD)” value (ALK fusion; [2]) was 0/1, the “Overall response rate (CR + PR)” value (ALK fusion; [2]) was 0/1 and the Partial response (ALK fusion; [2]) was 0/1. The Progressive disease (ALK fusion; [2]) was 1/1, the Stable disease (ALK fusion; [2]) was 0/1 and the “Disease control rate (CR + PR + SD)” value (ALK fusion; [3]) was 1/1. For the same compound, the “Overall response rate (CR + PR)” value (ALK fusion; [3]) was 1/1, the Partial response (ALK fusion; [3]) was 1/1 and the Progressive disease (ALK fusion; [3]) was 0/1. For the same compound, the Stable disease (ALK fusion; [3]) was 0/1, the “Disease control rate (CR + PR + SD)” value (ALK fusion; [4]) was 1/1 and the “Overall response rate (CR + PR)” value (ALK fusion; [4]) was 1/1. The Partial response (ALK fusion; [4]) was 1/1, the Progressive disease (ALK fusion; [4]) was 0/1 and the Stable disease (ALK fusion; [4]) was 0/1. The “Disease control rate (CR + PR + SD)” value (ALK fusion; [5]) was 1/1, the “Overall response rate (CR + PR)” value (ALK fusion; [5]) was 0/1 and the Partial response (ALK fusion; [5]) was 0/1. For the same compound, the Progressive disease (ALK fusion; [5]) was 0/1, the Stable disease (ALK fusion; [5]) was 1/1 and the “Disease control rate (CR + PR + SD)” value (ALK fusion; [6]) was 1/1. For the same compound, the “Overall response rate (CR + PR)” value (ALK fusion; [6]) was 0/1, the Partial response (ALK fusion; [6]) was 0/1 and the Progressive disease (ALK fusion; [6]) was 0/1. For the same compound, the Stable disease (ALK fusion; [6]) was 1/1, the “Disease control rate (CR + PR + SD)” value (ALK fusion; [7]) was 0/1 and the “Overall response rate (CR + PR)” value (ALK fusion; [7]) was 0/1. The Partial response (ALK fusion; [7]) was 0/1, the Progressive disease (ALK fusion; [7]) was 1/1 and the Stable disease (ALK fusion; [7]) was 0/1. For the same compound, the “Disease control rate (CR + PR + SD)” value (ALK fusion; [8]) was 1/1, the “Overall response rate (CR + PR)” value (ALK fusion; [8]) was 1/1 and the Partial response (ALK fusion; [8]) was 1/1. The Progressive disease (ALK fusion; [8]) was 0/1, the Stable disease (ALK fusion; [8]) was 0/1 and the “Disease control rate (CR + PR + SD)” value (ALK fusion; [9]) was 2/2. For the same compound, the “Overall response rate (CR + PR)” value (ALK fusion; [9]) was 1/2, the Partial response (ALK fusion; [9]) was 1/2 and the Progressive disease (ALK fusion; [9]) was 0/2. The Stable disease (ALK fusion; [9]) was 1/2, the “Disease control rate (CR + PR + SD)” value (ALK fusion; [10]) was 0/1 and the “Overall response rate (CR + PR)” value (ALK fusion; [10]) was 0/1. For the same compound, the Partial response (ALK fusion; [10]) was 0/1, the Progressive disease (ALK fusion; [10]) was 1/1 and the Stable disease (ALK fusion; [10]) was 0/1. The “Disease control rate (CR + PR + SD)” value (ALK fusion; [11]) was 7/9, the “Overall response rate (CR + PR)” value (ALK fusion; [11]) was 4/9 and the Partial response (ALK fusion; [11]) was 4/9. The Progressive disease (ALK fusion; [11]) was 2/9, the Stable disease (ALK fusion; [11]) was 3/9 and the ORR (ALK fusion; subjects with G1202R mutation) was 50%. It also gave an ORR (ALK fusion; subjects with variant 1) of 33.3% and an ORR (ALK fusion; subjects with variant 3) of 62.5%.
